Laboratory results published in PMC5729604, “Dual inhibitors of hepatitis C virus and hepatocellular carcinoma: design, synthesis and docking studies” (Future Science OA, 2017).

Key:
[1] = system: human peripheral blood mononuclear cells (PBMCs); assay type: cell-based; details: 72 h
Description: The safe compounds on RBCs (5a-g, 5i-l, 5p-r, 5v-w, 6b-g) were subjected to the in vitro cytotoxicity assay on human peripheral blood mononuclear cells (PBMCs). Viability of cells was measured using neutral red uptake assay as described by Borenfreund and Puerner to determine the concentrations of each compound that were not cytotoxic. The results were interpreted to calculate both the lethal concentration that kills 50% of cells (LD50) and the maximum safe concentration that causes 100% viability (LD0) of each compound using GraphPad InStat 3.0 software (Figure 6 & Supplementary Table 3).
The PBMCs were isolated by density gradient centrifugation technique as described by Boyum. Blood samples were freshly collected into heparinized or ethylenediaminetetraacetic acid sterile tubes. Blood was diluted using equal volume of RPMI-1640 medium containing 25 mM HEPES and then layered over equal volume of Ficoll-Pague™ Plus (Fisher BioReagents™ Lymphocyte Separation Medium-LSM, PA, USA) and centrifuged (2000 r.p.m. for 30 min at acceleration and deceleration speeds zero & zero) at room temperature. The buffy mononuclear cell layer was collected using sterile Pasteur pipette into 50 ml sterile Falcon tube and washed twice in phosphate-buffered saline (Sigma-Aldrich) using centrifugation (1650 r.p.m. for 5 min). The isolated PBMCs viability was determined by hemocytometer count using the trypan blue exclusion method. The PBMCs were resuspended at 1 × 10^6 cells/ml in RPMI-1640 medium containing 25 mM HEPES supplemented with 10% heat-inactivated FBS. The appropriate number of cells was chosen to be 1 × 10^5 cells/well (100 μl of the prepared suspension).
A 2 mg/ml stock solution of each compound was prepared in DMF and filtered using a 0.2 μM syringe filter. The desired concentrations (20, 10, 5, 2.5 and 1.25 μg/ml) were prepared using serial dilution in a 96-well plate. Compound wells were prepared by adding 100 μl of the previously prepared concentrations to a suspension of 1 × 10^5 PBMCs in 100 μl culture media. Parallel concentrations of the solvent were prepared to be used as controls. Control wells were prepared by adding 100 μl culture media to a suspension of 1 × 10^5 PBMCs in 100 μl culture media. Blank wells contained 200 μl of culture media only (without cells or compound solution). Each set of samples was pipetted in duplicate. The plate was then gently shaken then incubated at 37°C, 5% CO2 for 72 h.
After incubation, neutral red assay was performed as described previously, and surviving cell fraction was calculated according to the previously mentioned equation. Also, the results were interpreted to calculate both the lethal concentration that kills 50% of cells (LD50) and the maximum safe concentration that cause 100% viability (LD0) of each compound using GraphPad InStat 3.0 software.

In vitro hemolytic assay = assay type: cell-based; details: 2% erythrocyte suspension (washed red blood cells); 2% erythrocyte suspension, 3 μl of 1 mg/ml compound in DMF per 240 μl well, 37°C 30 min, absorbance 405 nm; <5% considered nontoxic
Description: Compounds 5a-x and 6a-h were subjected to the in vitro hemolytic assay to identify those which cause hemolysis to red blood cells (RBCs). Consequently, these compounds would be toxic in vivo so they were excluded from further biological screening.
Blood samples (5 ml) were freshly collected into heparinized tubes and were centrifuged (1000 r.p.m. for 20 min) at room temperature. The plasma and buffy coat were removed by Pasteur pipette, and the collected erythrocytes were washed three-times using isotonic buffer solution (0.9% sodium chloride [Sigma-Aldrich, MO, USA]) by centrifugation (2500 r.p.m. for 10 min). A two percent erythrocyte suspension was prepared to be used in the assay.
A 1 mg/ml stock solution of each compound was prepared in DMF (Sigma-Aldrich). Compound wells were prepared by adding 3 μl of the compound solution to 117 μl isotonic buffer solution and 120 μl erythrocyte suspension. Compounds color blank wells were prepared by adding 3 μl compound to 237 μl isotonic buffer solution. Solvent (DMF) wells were prepared by adding 3 μl DMF to 117 μl isotonic buffer solution and 120 μl erythrocyte suspension. Positive control wells (representing 100% hemolysis) were prepared by adding 120 μl erythrocyte suspension to 120 μl distilled water, while negative control wells (representing 0% hemolysis) were prepared by adding 120 μl erythrocyte suspension to 120 μl isotonic buffer solution. Finally, blank wells contained only 240 μl isotonic buffer solution. Each set of samples was pipetted in triplicate. The microtiter plate was then shaken well on bench, incubated at 37°C for 30 min then centrifuged (2000 rpm for 5 min) at room temperature.
A fraction of the supernatant layer (150 μl) of each well was transferred to another 96-well microtiter plate. Erythrocyte hemolysis was determined by reading the absorbance (A) of liberated hemoglobin at 405 nm in the supernatant fraction compared with the 100% hemolysis of erythrocyte. The average value was calculated from triplicate assay: [drawing 2]

Structure (SMILES): CC(=NN=C1SC(=C2C(=O)Nc3ccccc32)C(=O)N1c1ccc(Cl)cc1)c1nc2ccccc2[nH]1 [Compound 6f, 2-[1-(1H-Benzimidazole-2-yl)ethylidenehydrazono]-5-(2-oxoindolin-3-ylidene)-3-(4-chlorophenyl)thiazolidin-4-one]
- (LD0) PBMCs [1]: 253.34 µg/mL
- LD0 [1]: 253.34 µg/mL
- LD0 on PBMCs [1]: relatively high LD0 values
- LD50 [1]: 1369.42 µg/mL
- hemolysis at 30 min, 12.5 µg/ml (In vitro hemolytic assay): 1.01%

Structure (SMILES): COc1ccc(-c2nn(-c3ccccc3)cc2C=C2SC(=NN=C(C)c3nc4ccccc4[nH]3)N(c3ccc(Cl)cc3)C2=O)cc1 [Compound 5r, 2-[1-(1H-Benzimidazole-2-yl)ethylidenehydrazono]-5-{[3-(4-methoxyphenyl)-1-phenyl-1H-pyrazol-4-yl]methylene}-3-(4-chlorophenyl)thiazolidin-4-one]
- (LD0) PBMCs [1]: 7.33 µg/mL
- LD0 [1]: 7.33 µg/mL
- LD50 [1]: 44.00 µg/mL
- LD50 (PBMCs) [1]: 44.00 µg/mL
- hemolysis at 30 min, 12.5 µg/ml (In vitro hemolytic assay): 1.87%

Structure (SMILES): CC(=NN=C1SC(=Cc2cn(-c3ccccc3)nc2-c2ccc(Cl)cc2)C(=O)N1c1ccc(Cl)cc1)c1cc2ccccc2o1 [Compound 5e, 2-[1-(Benzofuran-2-yl)ethylidenehydrazono]-5-{[3-(4-chlorophenyl)-1-phenyl-1H-pyrazol-4-yl]methylene}-3-(4-chlorophenyl)thiazolidin-4-one]
- (LD0) PBMCs [1]: 4.26 µg/mL
- LD0 [1]: 4.26 µg/mL
- LD50 [1]: 117.12 µg/mL
- hemolysis at 30 min, 12.5 µg/ml (In vitro hemolytic assay): 3.82%

Structure (SMILES): CC(=NN=C1SC(=C2C(=O)Nc3ccccc32)C(=O)N1C1CCCCC1)c1cc2ccccc2o1 [Compound 6d, 2-[1-(Benzofuran-2-yl)ethylidenehydrazono]-5-(2-oxoindolin-3-ylidene)-3-cyclohexylthiazolidin-4-one]
- (LD0) PBMCs [1]: 5.21 µg/mL
- LD0 [1]: 5.21 µg/mL
- LD50 [1]: 14.32 µg/mL
- LD50 (PBMCs) [1]: 14.32 µg/mL
- hemolysis at 30 min, 12.5 µg/ml (In vitro hemolytic assay): 1.31%

Structure (SMILES): CC(=NN=C1SC(=Cc2cn(-c3ccccc3)nc2-c2ccccc2)C(=O)N1c1ccc(Cl)cc1)c1cc2ccccc2o1 [Compound 5d, 2-[1-(Benzofuran-2-yl)ethylidenehydrazono]-5-[(1,3-Diphenyl-1H-pyrazol-4-yl)methylene]-3-(4-chlorophenyl)thiazolidin-4-one]
- (LD0) PBMCs [1]: 11.43 µg/mL
- LD0 [1]: 11.43 µg/mL
- LD50 [1]: 160.43 µg/mL
- hemolysis at 30 min, 12.5 µg/ml (In vitro hemolytic assay): 1.05%

Structure (SMILES): CC(=NN=C1SC(=Cc2cn(-c3ccccc3)nc2-c2ccc(Cl)cc2)C(=O)N1c1ccc(Cl)cc1)c1nc2ccccc2[nH]1 [Compound 5q, 2-[1-(1H-Benzimidazole-2-yl)ethylidenehydrazono]-5-{[3-(4-chlorophenyl)-1-phenyl-1H-pyrazol-4-yl]methylene}-3-(4-chlorophenyl)thiazolidin-4-one]
- (LD0) PBMCs [1]: 190.45 µg/mL
- LD0 [1]: 190.45 µg/mL
- LD50 [1]: 1246.96 µg/mL
- LD50 (PBMCs) [1]: 1246.96 µg/mL
- hemolysis at 30 min, 12.5 µg/ml (In vitro hemolytic assay): 3.49%

Structure (SMILES): CC(=NN=C1SC(=Cc2cn(-c3ccccc3)nc2-c2ccccc2)C(=O)N1c1ccccc1)c1cc2ccccc2o1 [Compound 5a, 2-[1-(Benzofuran-2-yl)ethylidenehydrazono]-5-[(1,3-Diphenyl-1H-pyrazol-4-yl)methylene]-3-phenylthiazolidin-4-one]
- (LD0) PBMCs [1]: 11.17 µg/mL
- LD0 [1]: 11.17 µg/mL
- LD50 [1]: 13.99 µg/mL
- hemolysis at 30 min, 12.5 µg/ml (In vitro hemolytic assay): 3.27%
